According to patent US20200247800A1, “SUBSTITUTED BICYCLIC HETEROCYCLIC COMPOUNDS AS NADPH OXIDASE INHIBITORS” (Glenmark Pharmaceuticals S.A., priority 2017, published 2020):

Target: T1, human NOX4 (Homo sapiens, UniProt Q9NPH5)
T1 construct: expressed in transfected cells; membrane fraction used
T1 sequence (Q9NPH5 1-578): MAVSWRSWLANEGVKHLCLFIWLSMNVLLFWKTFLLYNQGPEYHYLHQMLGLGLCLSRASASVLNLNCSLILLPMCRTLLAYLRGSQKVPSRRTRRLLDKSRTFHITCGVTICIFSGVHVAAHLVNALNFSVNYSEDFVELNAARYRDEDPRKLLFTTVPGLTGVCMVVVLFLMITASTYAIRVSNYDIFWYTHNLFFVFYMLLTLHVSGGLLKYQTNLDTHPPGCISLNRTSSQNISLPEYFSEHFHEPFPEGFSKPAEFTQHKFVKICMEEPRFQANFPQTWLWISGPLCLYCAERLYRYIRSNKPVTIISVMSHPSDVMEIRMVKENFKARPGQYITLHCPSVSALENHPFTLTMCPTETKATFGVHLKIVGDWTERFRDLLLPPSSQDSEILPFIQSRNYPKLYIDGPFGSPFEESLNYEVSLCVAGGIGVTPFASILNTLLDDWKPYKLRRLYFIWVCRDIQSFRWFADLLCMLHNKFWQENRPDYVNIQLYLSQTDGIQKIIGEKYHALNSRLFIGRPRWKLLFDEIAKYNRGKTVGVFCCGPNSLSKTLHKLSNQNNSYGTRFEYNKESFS
T1 sequence (P13498 1-195 partner): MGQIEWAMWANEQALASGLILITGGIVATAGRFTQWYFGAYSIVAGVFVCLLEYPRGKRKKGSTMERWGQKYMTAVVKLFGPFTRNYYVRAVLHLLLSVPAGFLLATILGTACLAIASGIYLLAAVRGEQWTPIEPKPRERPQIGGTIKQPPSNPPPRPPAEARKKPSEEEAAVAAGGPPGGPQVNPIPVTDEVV
Experiment: Cell free membrane based in vitro NOX4 assay: H2O2 production by membranes expressing human NOX4, measured with Amplex Red
Type: biochemical
Details: for inhibition at 1 µM: 1.0 μM compound, read-out: Percentage inhibition at 1.0 μM; for inhibition at 10 µM: 10.0 μM compound, read-out: Percentage inhibition at 10.0 μM; for IC50: class symbols
Method in brief: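 Membranes from HEK cells stably overexpressing human NOX4 were preincubated 20 min with inhibitor in pH 7.4 HEPES buffer containing HRP and Amplex Red, then NADPH was added. H2O2 was followed for 10 min by fluorescence (ex 544/em 590 nm). IC50 from nonlinear regression of % maximal uninhibited response.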

inhibition at 1 µM | inhibition at 10 µM | IC50 | Compound
86% | 71.8% | 50 to 100 nM | CCc1nn(CCN2CCOCC2=O)c2[nH]c(-c3ccccc3Cl)c(O)c(=O)c12 [Example 167, 4-(2-(6-(2-Chlorophenyl)-3-ethyl-5-hydroxy-4-oxo-4,7-dihydro-1H-pyrazolo[3,4-b]pyridin-1-yl)ethyl)morpholin-3-one]
94.9% | 93.5% | 50 to 100 nM | CCc1nn(CCN2CCOCC2=O)c2[nH]c(-c3c(F)cccc3F)c(O)c(=O)c12 [Example 168, 4-(2-(6-(2,6-Difluorophenyl)-3-ethyl-5-hydroxy-4-oxo-4,7-dihydro-1H-pyrazolo[3,4-b]pyridin-1-yl)ethyl)morpholin-3-one]
83.7% | – | 50 to 100 nM | Cc1nn(CCN2CCN(C)CC2)c2[nH]c(-c3c(F)cccc3F)c(O)c(=O)c12 [Example 169, 6-(2,6-Difluorophenyl)-5-hydroxy-3-methyl-1-(2-(4-methylpiperazin-1-yl)ethyl)-1H-pyrazolo[3,4-b]pyridin-4(7H)-one]
74.4% | – | > 150 nM | CCCn1nc(CC)c2c(=O)c(O)c(-c3ccc(F)cc3F)[nH]c21 [Example 170, 6-(2,4-Difluorophenyl)-3-ethyl-5-hydroxy-1-propyl-1H-pyrazolo[3,4-b]pyridin-4(7H)-one]
80.9% | – | > 150 nM | CCc1nn(CCN2CCN(CC)CC2)c2[nH]c(-c3c(F)cccc3F)c(O)c(=O)c12 [Example 172, 6-(2,6-Difluorophenyl)-3-ethyl-1-(2-(4-ethylpiperazin-1-yl)ethyl)-5-hydroxy-1H-pyrazolo[3,4-b]pyridin-4(7H)-one]
76.1% | 69.7% | > 150 nM | CCc1nn(CCN2CCN(CC)CC2)c2[nH]c(-c3ccccc3Cl)c(O)c(=O)c12 [Example 173, 6-(2-Chlorophenyl)-3-ethyl-1-(2-(4-ethylpiperazin-1-yl)ethyl)-5-hydroxy-1H-pyrazolo[3,4-b]pyridin-4(7H)-one]
85.6% | – | 100 to 150 nM | CCc1nn(CCCN2CCOCC2)c2[nH]c(-c3cccc(C(F)(F)F)c3F)c(O)c(=O)c12 [Example 174, 3-Ethyl-6-(2-fluoro-3-(trifluoromethyl)phenyl)-5-hydroxy-1-(3-morpholinopropyl)-1H-pyrazolo[3,4-b]pyridin-4(7H)-one]
84% | 81.3% | 100 to 150 nM | CCc1nn(CCCN2CCOCC2)c2[nH]c(-c3c(F)cccc3F)c(O)c(=O)c12 [Example 175, 6-(2,6-Difluorophenyl)-3-ethyl-5-hydroxy-1-(3-morpholinopropyl)-1H-pyrazolo[3,4-b]pyridin-4(7H)-one]
81.3% | – | > 150 nM | CCc1nn(CCCN2CCOCC2)c2[nH]c(-c3ccc(F)cc3F)c(O)c(=O)c12 [Example 176, 6-(2,4-Difluorophenyl)-3-ethyl-5-hydroxy-1-(3-morpholinopropyl)-1H-pyrazolo[3,4-b]pyridin-4(7H)-one]
68.6% | 50.1% | > 150 nM | Cc1nn(CCN2CCNCC2)c2[nH]c(-c3ccccc3Cl)c(O)c(=O)c12 [Example 177, 6-(2-Chlorophenyl)-5-hydroxy-3-methyl-1-(2-(piperazin-1-yl)ethyl)-1H-pyrazolo[3,4-b]pyridin-4(7H)-one]
89% | – | > 150 nM | Cc1nn(CCN2CCN(C)CC2)c2[nH]c(-c3cccc(C(F)(F)F)c3F)c(O)c(=O)c12 [Example 178, 6-(2-fluoro-3-(trifluoromethyl)phenyl)-5-hydroxy-3-methyl-1-(2-(4-methylpiperazin-1-yl)ethyl)-1H-pyrazolo[3,4-b]pyridin-4(7H)-one]
92.3% | – | 100 to 150 nM | CCc1nn(CCN2CCN(C)CC2)c2[nH]c(-c3cccc(C(F)(F)F)c3F)c(O)c(=O)c12 [Example 179, 3-Ethyl-6-(2-fluoro-3-(trifluoromethyl)phenyl)-5-hydroxy-1-(2-(4-methylpiperazin-1-yl)ethyl)-1H-pyrazolo[3,4-b]pyridin-4(7H)-one]
100% | 100% | < 50 nM | CCc1nn(CCC(C)C)c2[nH]c(-c3c(F)cccc3F)c(O)c(=O)c12 [Example 180, 6-(2,6-Difluorophenyl)-3-ethyl-5-hydroxy-1-isopentyl-1H-pyrazolo[3,4-b]pyridin-4(7H)-one]
100% | 100% | 50 to 100 nM | CCc1nn(CCC(C)C)c2[nH]c(-c3ccccc3Cl)c(O)c(=O)c12 [Example 181, 6-(2-Chlorophenyl)-3-ethyl-5-hydroxy-1-isopentyl-1H-pyrazolo[3,4-b]pyridin-4(7H)-one]
100% | 100% | 50 to 100 nM | CCCn1nc(CO)c2c(=O)c(O)c(-c3c(F)cccc3F)[nH]c21 [Example 182, 6-(2,6-Difluorophenyl)-5-hydroxy-3-(hydroxymethyl)-1-propyl-1H-pyrazolo[3,4-b]pyridin-4(7H)-one]
84.2% | 97.1% | 100 to 150 nM | O=c1c(O)c(-c2c(F)cccc2F)[nH]c2c1c(CO)nn2C1CC1 [Example 183, 1-Cyclopropyl-6-(2,6-difluorophenyl)-5-hydroxy-3-(hydroxymethyl)-1H-pyrazolo[3,4-b]pyridin-4(7H)-one]
78.8% | 81.6% | > 150 nM | CCc1nn(CCN2CCOC(C)(C)C2=O)c2[nH]c(-c3c(F)cccc3F)c(O)c(=O)c12 [Example 184, 4-(2-(6-(2,6-Difluorophenyl)-3-ethyl-5-hydroxy-4-oxo-4,7-dihydro-1H-pyrazolo[3,4-b]pyridin-1-yl)ethyl)-2,2-dimethylmorpholin-3-one]
80.1% | 78.2% | 50 to 100 nM | Cn1nc(C2CCN(S(C)(=O)=O)CC2)c2c(=O)c(O)c(-c3c(F)cccc3F)[nH]c21 [Example 185, 6-(2,6-Difluorophenyl)-5-hydroxy-1-methyl-3-(1-(methylsulfonyl)piperidin-4-yl)-1H-pyrazolo[3,4-b]pyridin-4(7H)-one]
71.9% | 81.2% | > 150 nM | CS(=O)(=O)N1CCC(c2nn(C3CC3)c3[nH]c(-c4c(F)cccc4F)c(O)c(=O)c23)CC1 [Example 186, 1-Cyclopropyl-6-(2,6-difluorophenyl)-5-hydroxy-3-(1-(methylsulfonyl)piperidin-4-yl)-1H-pyrazolo[3,4-b]pyridin-4(7H)-one]
77% | 77.8% | 100 to 150 nM | CCc1nn(C)c2[nH]c(-c3cnc(-c4ccc(F)cc4F)s3)c(O)c(=O)c12 [Example 187, 6-(2-(2,4-Difluorophenyl)thiazol-5-yl)-3-ethyl-5-hydroxy-1-methyl-1H-pyrazolo[3,4-b]pyridin-4(7H)-one]
96.5% | 100% | 100 to 150 nM | Cn1nc(CO)c2c(=O)c(O)c(-c3c(F)cccc3F)[nH]c21 [Example 188, 6-(2,6-Difluorophenyl)-5-hydroxy-3-(hydroxymethyl)-1-methyl-1H-pyrazolo[3,4-b]pyridin-4(7H)-one]
